Measured values published in US8470334B2, “Method of inducing an antiviral immune response against HIV-1 utilizing chimeric HIV Env proteins comprising CD4 mini-proteins or CD4 mimetics” (Novartis Vaccines & Diagnostics, Inc, priority 2002, dated 2013).

Biological target: gp120 (Human immunodeficiency virus type 1 group M subtype B, UniProt P04578)
Test: competitive ELISA of gp120 binding
Set-up: species or system HIV-1
Conditions: as compared to previous double mutant (CD4M8)
Text: In a second step, each putatively active side chain of the miniprotein was replaced by an Ala residue (“Ala scanning”).

SMILES: CC(C)C[C@@H]1NC(=O)CNC(=O)[C@H](CC(C)C)NC(=O)[C@H](CO)NC(=O)[C@H](CCCCN)NC(=O)[C@@H]2CSSC[C@@H](C(=O)NCC(=O)N3CCC[C@H]3C(=O)O)NC(=O)[C@H](C)NC(=O)[C@@H]3CSSC[C@H](NC(=O)[C@H](CCCNC(=N)N)NC(=O)[C@H](C)NC(=O)[C@H](CC(C)C)NC(=O)[C@H](CC(N)=O)NC(=O)[C@@H](N)CSSC[C@H](NC(=O)[C@H](CCCCN)NC(=O)CNC(=O)[C@H](CC(C)C)NC1=O)C(=O)N[C@@H](C)C(=O)NCC(=O)N[C@@H](CO)C(=O)N[C@@H](Cc1ccccc1)C(=O)N3)C(=O)N[C@@H](CCC(N)=O)C(=O)N[C@@H](CC(C)C)C(=O)N[C@@H](CCCNC(=N)N)C(=O)N2 [CD4M9]
- further increase of binding affinity: ten-fold
